Reference: the Kinase Knowledgebase extract (Sharma et al. 2016)

The compounds below were run against PIK3CG (human) (UniProt P48736) (assay: Assessment of PIK3CG Kinase Activity).
Sequence of PIK3CG (human) (P48736 whole entry, looked up): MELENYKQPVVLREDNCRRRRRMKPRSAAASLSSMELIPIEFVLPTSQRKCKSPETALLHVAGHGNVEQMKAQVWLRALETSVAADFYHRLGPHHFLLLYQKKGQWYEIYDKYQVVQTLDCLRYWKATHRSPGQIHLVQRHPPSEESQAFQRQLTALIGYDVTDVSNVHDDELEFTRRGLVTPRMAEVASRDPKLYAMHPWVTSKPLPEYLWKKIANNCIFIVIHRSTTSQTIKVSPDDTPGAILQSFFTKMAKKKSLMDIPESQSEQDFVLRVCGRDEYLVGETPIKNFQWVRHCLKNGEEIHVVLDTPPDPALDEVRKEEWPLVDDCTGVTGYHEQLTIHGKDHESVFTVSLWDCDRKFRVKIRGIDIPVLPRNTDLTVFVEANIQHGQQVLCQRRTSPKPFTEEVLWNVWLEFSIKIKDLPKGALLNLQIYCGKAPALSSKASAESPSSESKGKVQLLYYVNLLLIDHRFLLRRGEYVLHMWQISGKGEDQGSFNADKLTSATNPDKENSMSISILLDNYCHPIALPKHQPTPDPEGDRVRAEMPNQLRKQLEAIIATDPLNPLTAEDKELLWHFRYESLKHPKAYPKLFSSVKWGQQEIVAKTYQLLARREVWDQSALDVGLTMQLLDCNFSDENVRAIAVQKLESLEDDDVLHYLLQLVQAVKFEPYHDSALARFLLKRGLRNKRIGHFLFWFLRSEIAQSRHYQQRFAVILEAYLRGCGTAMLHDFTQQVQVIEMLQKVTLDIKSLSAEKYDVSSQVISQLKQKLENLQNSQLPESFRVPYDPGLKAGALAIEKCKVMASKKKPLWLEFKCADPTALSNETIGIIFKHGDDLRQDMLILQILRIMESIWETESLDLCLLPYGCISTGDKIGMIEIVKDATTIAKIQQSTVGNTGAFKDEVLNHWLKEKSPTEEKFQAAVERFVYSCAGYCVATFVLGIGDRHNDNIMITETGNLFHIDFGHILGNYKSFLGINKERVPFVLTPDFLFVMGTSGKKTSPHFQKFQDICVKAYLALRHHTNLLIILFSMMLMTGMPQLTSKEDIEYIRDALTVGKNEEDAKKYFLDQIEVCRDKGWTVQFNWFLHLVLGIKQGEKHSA

IC50, < 800 nM:
CCNC(=O)Nc1nc2c(s1)-c1nc(-c3ccccc3F)ncc1CC2
O=C(Nc1nc2c(s1)-c1nc(-c3ccccc3Cl)ncc1CC2)N1CCOCC1
O=C(Nc1nc2c(s1)-c1nc(-c3ccccc3Cl)ncc1CC2)NC1CCCCC1
CN(C)S(=O)(=O)N[C@H]1CCN(C(=O)Nc2nc3c(s2)-c2nc(-c4ccccc4Cl)ncc2CC3)C1
O=C(Nc1nc2c(s1)-c1nc(-c3ccccc3Cl)ncc1CC2)N1CCCC1
CNC(=O)Nc1nc2c(s1)-c1nc(-c3ccccc3Br)ncc1CC2
CNC(=O)Nc1cccc(CNC(=O)Nc2nc3c(s2)-c2nc(-c4ccccc4Cl)ncc2CC3)c1
CC(C)c1nnc(CCNC(=O)Nc2nc3c(s2)-c2nc(-c4ccccc4F)ncc2CC3)o1
O=C(NCC1CC1)Nc1nc2c(s1)-c1nc(-c3ccccc3Cl)ncc1CC2
CC(C)c1cccc(CNC(=O)Nc2nc3c(s2)-c2nc(-c4ccccc4Cl)ncc2CC3)c1
CCn1cc(CNC(=O)Nc2nc3c(s2)-c2nc(-c4cccc(F)c4Cl)ncc2CC3)cn1
COc1ccccc1C1CCN(C(=O)Nc2nc3c(s2)-c2nc(-c4ccccc4Cl)ncc2CC3)C1 (stereo not drawn)
O=C(NCc1cccc(C(F)(F)F)c1)Nc1nc2c(s1)-c1nc(-c3ccccc3Cl)ncc1CC2
O=C(CCNC(=O)Nc1nc2c(s1)-c1nc(-c3ccccc3Cl)ncc1CC2)NC1CCCC1
CC(C)COC(=O)N[C@@H]1CCN(C(=O)Nc2nc3c(s2)-c2nc(-c4ccccc4Cl)ncc2CC3)C1
O=C1CC[C@H](NC(=O)Nc2nc3c(s2)-c2nc(-c4ccccc4Cl)ncc2CC3)CN1
CC(C)(C)OC(=O)N1CCC[C@H]1CNC(=O)Nc1nc2c(s1)-c1nc(-c3ccccc3Cl)ncc1CC2
CCc1nnc(CCNC(=O)Nc2nc3c(s2)-c2nc(-c4ccccc4Cl)ncc2CC3)o1
CC(C)CC(=O)N[C@H]1CCN(C(=O)Nc2nc3c(s2)-c2nc(-c4ccccc4Cl)ncc2CC3)C1
CC(C)(CNc1ncccn1)NC(=O)Nc1nc2c(s1)-c1nc(-c3ccccc3Cl)ncc1CC2
O=C(NCCN1CCCC1)Nc1nc2c(s1)-c1nc(-c3ccccc3Cl)ncc1CC2
CN1CCN(C(=O)Nc2nc3c(s2)-c2nc(-c4ccccc4Cl)ncc2CC3)CC1
CC(C)c1cnc(CCNC(=O)Nc2nc3c(s2)-c2nc(-c4ccccc4Br)ncc2CC3)o1
O=C(Nc1nc2c(s1)-c1nc(-c3ccccc3Cl)ncc1CC2)Nc1ccccc1CN1CCNC1=O
CC(C)C(=O)N[C@@H]1CCN(C(=O)Nc2nc3c(s2)-c2nc(-c4ccccc4Cl)ncc2CC3)C1
O=C(Nc1nc2c(s1)-c1nc(-c3ccccc3Cl)ncc1CC2)NC1CC1
CC(C)NC(=O)Nc1cccc(CNC(=O)Nc2nc3c(s2)-c2nc(-c4ccccc4Cl)ncc2CC3)c1
CN(C)c1cccc(CNC(=O)Nc2nc3c(s2)-c2nc(-c4ccccc4Cl)ncc2CC3)c1
NC(=O)Nc1nc2c(s1)-c1nc(-c3ccccc3F)ncc1CC2
CC(C)(C)OC(=O)N[C@H]1CCN(C(=O)Nc2nc3c(s2)-c2nc(-c4ccccc4Cl)ncc2CC3)C1
Cc1ccc(CN2CC(CNC(=O)Nc3nc4c(s3)-c3nc(-c5ccccc5Cl)ncc3CC4)CC2=O)cc1 (stereo not drawn)
O=C(Nc1nc2c(s1)-c1nc(-c3ccccc3Cl)ncc1CC2)N1CC[C@H](NS(=O)(=O)N2CCCC2)C1
O=C(Nc1nc2c(s1)-c1nc(-c3ccccc3Cl)ncc1CC2)N1CC[C@H](NC(=O)N2CCCC2)C1
